For experiment [1], the system named is mouse adult neural stem cells. Briefly: Intracellular ATP assay, adult mouse NSC, non-adherent culture. The experiment is classed as cell-based. To be noted: for effect of inhibitor on the PACAP increase of intracellular ATP: co-incubated with PACAP 100 nM, 4 days, 10 uM H89, 1 uM U73122, 1 uM Gö6976. Here is the method:
The anterior lateral wall of the lateral ventricle of 5-6 week old mice was enzymatically dissociated in 0.8 mg/ml hyaluronidase and 0.5 mg/ml trypsin in DMEM containing 4.5 mg/ml glucose and 80 units/ml DNase at 37° C. for 20 min. The cells were gently triturated and mixed with three volumes of Neurosphere medium (DMEM/F12, B27 supplement, 12.5 mM HEPES pH7.4) containing 20 ng/ml EGF (unless otherwise stated), 100 units/ml penicillin and 100μg/ml streptomycin. After passing through a 70 μm strainer, the cells were pelleted at 160×g for 5 min. The supernatant was subsequently removed and the cells resuspended in Neurosphere medium supplemented as above, plated out in culture dishes and incubated at 37° C. Neurospheres were ready to be split approximately 7 days after plating.
To split neurosphere cultures, neurospheres were collected by centrifugation at 160×g for 5 min. The neurospheres were resuspended in 0.5 ml Trypsin/EDTA in HBSS (1×), incubated at 37° C. for 2 min and triturated gently to aid dissociation. Following a further 3 min incubation at 37° C. and trituration, 3 volumes of ice cold NSPH-media-EGF were added to stop further trypsin activity. The cells were pelleted at 220×g for 4 min, resuspended in fresh Neurosphere medium supplemented with 20 ng/ml EGF and 1 nM bFGF plated out and incubated at 37° C.
Mouse neurospheres, cultured as described above, from passage 2, were seeded in DMEM/F12 supplemented with B27 into a 96-well plate as single cells (10000 cells/well) to the substances to be measured were added at the concentrations indicated. After 3 days incubation, intracellular ATP was measured using the ATP-SL kit from BioThema, Sweden, according to the manufacturer's instructions. PACAP and VIP were purchased from Bachem. Maxadilan was a kind gift from Richard G Titus, Dept Microbiology, Immunology and Pathology, College of Veterinary Medicine and Biological Sciences, Colorado State University.
In experiments where signalling pathways were examined, cells were seeded as single cells as mentioned above. PACAP, 100 nM, was co incubated with 10 uM PKA inhibitor H89 (Alexis-Biochemicals) or 1 uM PLC inhibitor U73122 (Alexis-Biochemicals) or 1 uM of the PKC inhibitor Gö6976 (Sigma-Aldrich). Cells were incubated for 4 days before measurements of ATP.
In the experiment analysing the combinatory effect of PACAP and EGF, PACAP at 100 nM was co-incubated with 3 nM EGF for 3 days.

The next experiment deals with NSC from LVW. Put plainly: Culture of NSC for cell counting. In kind it is cell-based, mouse. To be noted: PACAP 100 nM, VEGF 1 nM, in place of EGF, 7 days; VEGF relative to PACAP treated NSC. Here is the method:
Anterior lateral ventricle wall was dissected and the cells treated as stated above, however, in place of EGF, the medium was supplemented either with PACAP (100 nM), VEGF (1 nM) or a combination of both at the stated concentrations. The cell suspension was plated into wells of a 24 well plate. The medium was further supplemented with PACAP and/or VEGF every 2 days. After 7 days in culture, the NSC washed in phosphate buffered saline and dissociated with trypsin/EDTA. Cells numbers per well were counted using a Bürker chamber. VEGF was purchased from R&D Systems.

Another experiment concerns AP-1. Briefly: AP-1 transcription factor reporter assay. To be noted: PD89059 10 μM with PACAP 100 nM. In kind it is cell-based, mouse. As to the method: Vectors: Vector DNA containing reporter elements for AP-1 and empty cloning vector (pTAL), with a luciferace reporter were purchased from Promega. The vectors were propagated in E. coli strain JM-109 (Promega) and purified with Qiagens maxi-prep Kit (Qiagen). The concentration was diluted to approximately 1 mg/ml per vector.
Transfection: Transient transfection was performed by seeding cells as above in suspension neurosphere cell culture and adherent neurosphere cell culture (1 to 3 day incubation) using 30,000 single cells/well. Each well was transiently transfected with […] plasmid, 0.6 μg Nupherin-neuron (Biomol) and 0,6 μl of Fugene-6 (Roche). Plasmid and Nupherin was mixed and diluted in DMEM/F12 to a total volume of 50 μl/well, and were incubated for 15 minutes prior to mixing with Fugene-6 that were diluted in DMEM/F12 to a total volume of 50 μl/well. The mix of plasmid and Nupherin and Fugene-6 were incubated for 20 min. The volume was adjusted to 100 μl prior to addition of 100 μl/well of transfection reagent.
Assay: The following day the transiently transfected cells were applied with PACAP (Bachem) to final concentration of 100 nM/well, in the presence or absence of MEK inhibitor, […] (Sigma-Aldrich). Luciferace activity was analysed with steady glow (Promega) according to the instructions of the manufacturer. Cells were analysed 20 hours after induction with PACAP.
On the technique in general: Reporter assays use an easily measured gene product as a stand-in for the process of interest.

Ends that are not written are not given here.

As for `Cn1c2ccccc2c2c3c(c4c5ccccc5n(CCC#N)c4c21)CNC3=O` [Gö6976, reference compound], in experiment [1], the “effect of inhibitor on the PACAP increase of intracellular ATP” value is “entirely negate the effect of PACAP”.

As for “EGF: mitogen, growth factor for cell cultures from BD Biosciences”, the “intracellular ATP levels, and hence NSC number” value in experiment [1] (PACAP 100 nM, EGF 3 nM, alone or combined, 3 days) was “increased intracellular ATP levels”.

“Vasoactive intestinal peptide (HSDAVFTDNYTRLRKQMAVKKYLNSILN; ends and bridges not checked; UniProt P01282 125-152, looked up) [VIP, 28-amino acid peptide]”: in experiment [1] (VIP at 1 μM, non-adherent conditions, 3 days, relative to control), the “intracellular ATP, and hence cell number” value was “statistically significant increase in intracellular ATP”.

As for “vascular endothelial growth factor [VEGF]”, in the experiment on NSC from LVW, the cell number entry is “significant increase in cell number”.

With `COc1cccc(-c2cc(=O)c3ccccc3o2)c1N` [PD89059, reference compound], the “effect of MEK inhibitor on the PACAP induction of AP-1” value in the experiment with AP-1 was “inhibited”.

In the case of `COc1ccc2c(c1)CC[C@@H]1[C@@H]2CC[C@]2(C)[C@@H](NCCCCCCN3C(=O)C=CC3=O)CC[C@@H]12` [U73122, reference compound], the “effect of inhibitor on the PACAP increase of intracellular ATP” value in experiment [1] is recorded as “entirely negate the effect of PACAP”.

`O=S(=O)(NCCNC/C=C/c1ccc(Br)cc1)c1cccc2cnccc12` [H89, reference compound]: the “effect of inhibitor on the PACAP increase of intracellular ATP” value in experiment [1] is “unaltered”.
